# In ChEMBL document CHEMBL2331281, “Isolation of ciliatamide D from a marine sponge Stelletta sp. and a reinvestigation of the configuration of ciliatamide A” (J Nat Prod, 2013):
# Activity calls are given as the source filed them. No cut-off for these calls is given here.
# Tests used:
# HeLa = experiment: Cytotoxicity against human HeLa cells at 50 ug/ml after 72 hrs by MTT assay; format: functional, cell-based
# [1] = target: Cathepsin B (Homo sapiens) (UniProt P07858); experiment: Inhibition of cathepsin B (unknown origin) using Z-Arg-Arg-AMC as substrate at 50 ug/ml after 30 mins by fluorescence assay
smiles,measurement,setting,value
C=CCCCCCCCC(=O)N(C)[C@@H](CC[S+](C)[O-])C(=O)N[C@H]1CCCCNC1=O (mixture of isomers),Activity,HeLa,inactive
same,inhibition,[1],inactive
